According to patent US9562035B2, “Benzamide derivative useful as FASN inhibitors for the treatment of cancer” (Janssen Pharmaceutica NV, priority 2013, dated 2017):

Legend:
A2780 ovarian cells [1] = test: A2780 Ovarian Cell Proliferation Assay in Lipid Reduced Medium, without Palmitate; type: cell-based; conditions: Homo sapiens
Summary of the method: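 A2780 cells were seeded in 10% FCS medium and switched next day to 10% lipid-reduced serum without palmitate. Compounds at 0.01–30 μM were added with 0.2% DMSO, 0.2% fatty-acid-free BSA and 0.25% ethanol final. After 96 h, MTT absorbance at 544 nm was normalized to plate controls, and IC50/pIC50 came from a 4-parameter logistic fit.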

[2] = molecular target: T1, hFASN enzyme (full length) (Homo sapiens, UniProt P49327); test: Fatty Acid Synthase (FASN) Inhibition Scintillation Proximity Assay; type: biochemical; conditions: for IC50: mean where tested more than once, ~ = standard error of pIC50 larger than 0.5; for inhibition at 10 µM: read-out: FASN % Effect @1E−05M
T1 construct: 10 μL hFASN enzyme (full length, 300 ng, purified in house); made in house
T1 sequence (P49327 whole entry): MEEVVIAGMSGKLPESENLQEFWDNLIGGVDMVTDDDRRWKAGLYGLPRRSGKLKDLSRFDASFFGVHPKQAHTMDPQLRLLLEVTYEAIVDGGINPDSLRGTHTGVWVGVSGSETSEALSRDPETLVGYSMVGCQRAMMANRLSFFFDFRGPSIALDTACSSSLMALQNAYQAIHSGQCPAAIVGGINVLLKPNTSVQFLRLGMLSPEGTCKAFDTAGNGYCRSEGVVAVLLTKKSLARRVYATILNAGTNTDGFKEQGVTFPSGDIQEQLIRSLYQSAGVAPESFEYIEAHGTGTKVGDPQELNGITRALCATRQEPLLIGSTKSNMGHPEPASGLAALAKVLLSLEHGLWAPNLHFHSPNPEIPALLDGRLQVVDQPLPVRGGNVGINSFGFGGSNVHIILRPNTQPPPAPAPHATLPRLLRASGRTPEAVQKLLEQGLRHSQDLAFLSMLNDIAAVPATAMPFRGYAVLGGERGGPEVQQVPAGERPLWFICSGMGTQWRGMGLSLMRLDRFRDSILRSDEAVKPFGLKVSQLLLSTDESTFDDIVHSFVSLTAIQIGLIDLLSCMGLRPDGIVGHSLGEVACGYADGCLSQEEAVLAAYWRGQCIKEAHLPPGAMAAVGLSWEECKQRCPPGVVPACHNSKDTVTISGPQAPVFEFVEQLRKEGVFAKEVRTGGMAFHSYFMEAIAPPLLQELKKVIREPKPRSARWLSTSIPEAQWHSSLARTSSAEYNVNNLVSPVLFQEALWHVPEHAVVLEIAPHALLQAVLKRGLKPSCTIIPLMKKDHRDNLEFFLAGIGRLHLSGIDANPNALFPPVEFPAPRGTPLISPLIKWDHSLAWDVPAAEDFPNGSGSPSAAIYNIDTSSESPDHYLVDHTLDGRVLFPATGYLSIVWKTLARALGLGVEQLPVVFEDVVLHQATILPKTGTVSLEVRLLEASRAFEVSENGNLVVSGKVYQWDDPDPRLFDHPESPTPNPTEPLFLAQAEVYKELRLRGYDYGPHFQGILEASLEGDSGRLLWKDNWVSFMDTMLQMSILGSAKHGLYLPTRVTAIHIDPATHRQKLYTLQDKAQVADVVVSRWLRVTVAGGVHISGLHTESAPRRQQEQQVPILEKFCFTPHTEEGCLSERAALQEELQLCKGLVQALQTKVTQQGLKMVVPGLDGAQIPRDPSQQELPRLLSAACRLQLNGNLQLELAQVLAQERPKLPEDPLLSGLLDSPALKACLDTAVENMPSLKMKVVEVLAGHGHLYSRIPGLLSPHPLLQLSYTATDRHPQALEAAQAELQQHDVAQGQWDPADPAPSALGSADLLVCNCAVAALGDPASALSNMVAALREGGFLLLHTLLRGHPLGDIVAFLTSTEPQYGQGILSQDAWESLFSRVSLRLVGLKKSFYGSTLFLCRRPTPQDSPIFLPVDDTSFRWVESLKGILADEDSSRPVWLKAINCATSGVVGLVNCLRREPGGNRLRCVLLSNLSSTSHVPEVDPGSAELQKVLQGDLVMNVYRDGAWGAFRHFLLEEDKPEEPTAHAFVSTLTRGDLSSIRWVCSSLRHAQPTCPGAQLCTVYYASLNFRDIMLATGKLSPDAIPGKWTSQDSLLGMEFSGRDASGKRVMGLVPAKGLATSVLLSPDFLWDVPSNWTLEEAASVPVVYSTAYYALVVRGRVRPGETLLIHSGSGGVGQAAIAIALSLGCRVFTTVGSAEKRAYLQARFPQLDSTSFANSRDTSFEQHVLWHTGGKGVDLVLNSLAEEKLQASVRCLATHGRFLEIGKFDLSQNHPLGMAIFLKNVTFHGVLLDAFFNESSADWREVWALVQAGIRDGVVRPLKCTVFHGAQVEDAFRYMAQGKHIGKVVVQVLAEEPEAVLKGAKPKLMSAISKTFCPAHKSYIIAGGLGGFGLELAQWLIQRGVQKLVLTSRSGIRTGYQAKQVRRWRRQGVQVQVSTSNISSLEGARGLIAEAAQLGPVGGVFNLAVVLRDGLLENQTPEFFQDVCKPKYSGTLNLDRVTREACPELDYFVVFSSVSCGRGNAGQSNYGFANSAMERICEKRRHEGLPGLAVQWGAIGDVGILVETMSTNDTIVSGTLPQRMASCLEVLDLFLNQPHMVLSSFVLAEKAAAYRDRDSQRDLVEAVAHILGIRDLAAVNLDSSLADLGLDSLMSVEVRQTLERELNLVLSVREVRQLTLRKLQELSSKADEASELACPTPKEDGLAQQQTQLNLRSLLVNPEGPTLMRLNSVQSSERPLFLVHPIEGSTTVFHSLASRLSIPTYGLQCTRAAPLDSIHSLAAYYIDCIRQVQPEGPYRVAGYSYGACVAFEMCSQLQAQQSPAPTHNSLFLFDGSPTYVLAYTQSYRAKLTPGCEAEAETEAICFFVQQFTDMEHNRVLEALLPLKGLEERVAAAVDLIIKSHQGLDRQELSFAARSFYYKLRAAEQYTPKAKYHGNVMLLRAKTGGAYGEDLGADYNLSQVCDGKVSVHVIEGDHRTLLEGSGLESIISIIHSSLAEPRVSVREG
Summary of the method: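 Purified full-length human FASN (300 ng) incubated 60 min at room temperature with NADPH, [3H]-acetyl-CoA and malonyl-CoA in 100 mM KH2PO4 pH 7.5, 1 mM DTT; compound at 30 μM to 0.01 μM. [3H]-palmitate captured by SPA imaging beads; IC50 from 4-parameter fit, reported as pIC50.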

A2780 ovarian cells [3] = test: A2780 Ovarian Cell Proliferation Assay in Lipid Reduced Medium, with Palmitate (control); type: cell-based; conditions: Homo sapiens
Summary of the method: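 A2780 cells were seeded in RPMI1640 with 10% FCS, then switched next day to medium with 10% lipid-reduced serum. Compound was added with final 25 μM palmitate, 0.2% fatty-acid-free BSA and 0.2% DMSO, and incubated 96 h at 37 °C. Read-out was MTT absorbance at 544 nm; pIC50 = −log(IC50) from curve fit.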

[4] = molecular target: T2, FASN Keto-reductase Domain (Homo sapiens, UniProt P49327); test: Fatty Acid Synthase Keto-Reductase Domain (FASN KR) Inhibition; type: biochemical; conditions: mean where tested more than once; read-out: FASN K-R Domain pIC50 (converted)
T2 construct: 10 μL hFASN enzyme (full length, 300 ng, purified in house) and 360 μM NADPH; made in house
T2 sequence (P49327 whole entry, the tested form may be a part): as the sequence (P49327 whole entry) above
Summary of the method: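 Full-length human FASN (300 ng) in 100 mM KH2PO4 pH 7.5 with 360 μM NADPH and 180 mM ethyl acetoacetate (stock); A340 decrease read over 20 min at room temperature.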

[5] = A2780, lipid reduced medium, without palmitate, 96 h, MTT, read-out: Proliferation A2780 w/o Palmitate pIC50 (converted)
[6] = A2780, lipid reduced medium, 25 μM palmitate, 96 h, MTT, read-out: Proliferation A2780 with Palmitate pIC50 (converted)

SMILES | IC50 (A2780 ovarian cells [1]; [5]) [µM] | IC50 [2] [nM] | inhibition at 10 µM [2] [%] | IC50 (A2780 ovarian cells [3]; [6]) [µM] | IC50 [4] [nM] | IC50 (A2780 ovarian cells [1]; A2780, 96 h, read-out: Proliferation A2780 w/o Palmitate pIC50 (μM) (converted)) [µM] | IC50 (A2780 ovarian cells [3]; A2780, 96 h, read-out: Proliferation A2780 with Palmitate pIC50 (μM) (converted)) [µM]
CC(C)N(C)c1ccc(C(=O)N2CCC(c3ccc(-c4cnn(C)c4)cc3)CC2)cc1NC(=O)c1ccc(Cl)nc1 [Compound 274, 6-chloro-N-(2-(isopropyl(methyl)amino)-5-(4-(4-(1-methyl-1H-pyrazol-4-yl)phenyl)piperidine-1-carbonyl)phenyl)nicotinamide] | ~0.302 | 437 | 88 | > 10 | ~2190 |  | 
CN(C)c1ccc(C(=O)N2CCC(c3ccc(-c4cnn(C)c4)cc3)CC2)cc1NC(=O)c1ccc(Cl)nc1 [Compound 275, 6-chloro-N-(2-(dimethylamino)-5-(4-(4-(1-methyl-1H-pyrazol-4-yl)phenyl)piperidine-1-carbonyl)phenyl)nicotinamide] | 0.1 | 56.2 | 99 | > 10 | 126 |  | 
CC(C)Nc1ccc(C(=O)Nc2cc(C(=O)N3CCC(c4ccc(-c5cnn(C)c5)cc4)CC3)ccc2N(C)C(C)C)cn1 [Compound 276, N-(2-(isopropyl(methyl)amino)-5-(4-(4-(1-methyl-1H-pyrazol-4-yl)phenyl)piperidine-1-carbonyl)phenyl)-6-(isopropylamino)nicotinamide] | ~0.257 | 372 | 93 | > 10 | 479 |  | 
COCCN(C)c1ccc(C(=O)N2CCC(c3ccc(-c4cnn(C)c4)cc3)CC2)cc1NC(=O)C1CC1 [Compound 278, N-(2-((2-methoxyethyl)(methyl)amino)-5-(4-(4-(1-methyl-1H-pyrazol-4-yl)phenyl)piperidine-1-carbonyl)phenyl)cyclopropanecarboxamide] | 1.78 | 813 | 85 | > 10 | 1100 |  | 
CC(C)Nc1ccc(C(=O)Nc2cc(C(=O)N3CCC(c4ccc(-c5cnn(C)c5)cc4)CC3)ccc2N(C)C)cn1 [Compound 280, N-(2-(dimethylamino)-5-(4-(4-(1-methyl-1H-pyrazol-4-yl)phenyl)piperidine-1-carbonyl)phenyl)-6-(isopropylamino)nicotinamide] | 0.0776 | 70.8 | 99 | 6.17 | 148 |  | 
COCCN(C)c1ccc(C(=O)N2CCC(c3ccc(-c4cnn(C)c4)cc3)CC2)cc1NC(=O)c1ccc(NC(C)C)nc1 [Compound 281, 6-(isopropylamino)-N-(2((2-methoxyethyl)(methyl)amino)-5-(4-(4-(1-methyl-1H-pyrazol-4-yl)phenyl)piperidine-1-carbonyl)phenyl)nicotinamide] | 0.417 | 457 | 93 | ~6.31 | 933 |  | 
COCCNc1ccc(C(=O)N2CCC(c3ccc(-c4cnn(C)c4)cc3)CC2)cc1NC(=O)c1ccc(NC(C)C)nc1 [Compound 282, 6-(isopropylamino)-N-(2-((2-methoxyethyl)amino)-5-(4-(4-(1-methyl-1H-Pyrazol-4-yl)phenyl)piperidine-1-carbonyl)phenyl)nicotinamide] | 0.209 | 70.8 | 99 | > 10 | 457 |  | 
CC(C)Nc1ccc(C(=O)Nc2cc(C(=O)N3CCC(c4ccc(-c5cnn(C)c5)cc4)CC3)ccc2NC2CC2)cn1 [Compound 283, N-(2-(cyclopropylamino)-5-(4-(4-(1-methyl-1H-pyrazol-4-yl)phenyl)piperidine-1-carbonyl)phenyl)-6-(isopropylamino)nicotinamide] | 0.363 | 110 | 98 | > 10 | 631 |  | 
CC(C)Nc1ccc(C(=O)Nc2cc(C(=O)N3CCC(c4ccc(-c5cnn(C)c5)cc4)CC3)ccc2NC(C)C)cn1 [Compound 284, 6-(isopropylamino)-N-(2-(isopropylamino)-5-(4-(4-(1-methyl-1H-pyrazol-4-yl)phenyl)piperidine-1-carbonyl)phenyl)nicotinamide] | ~0.316 | 126 | 95 | > 10 | 407 |  | 
Cc1ccc(C(=O)N2CCC(c3ccc(-c4cnn(C)c4)cc3)CC2)cc1NC(=O)c1ccc(NC(C)C)nc1 [Compound #32, 6-(isopropylamino)-N-(2-methyl-5-(4-(4-(1-methyl-1H-pyrazol-4-yl)phenyl)piperidine-1-carbonyl)phenyl)nicotinamide] |  | 26.9 | 104 |  | 37.2 | 0.0135 | 7.24

Further lines, with some results ahead:

IC50 (A2780 ovarian cells [1]; [5]) [µM] | IC50 [2] [nM] | inhibition at 10 µM [2] [%] | IC50 (A2780 ovarian cells [3]; [6]) [µM] | IC50 [4] [nM] | SMILES | IC50 (A2780 ovarian cells [1]; A2780, 96 h, read-out: Proliferation A2780 w/o Palmitate pIC50 (μM) (converted)) [µM] | IC50 (A2780 ovarian cells [3]; A2780, 96 h, read-out: Proliferation A2780 with Palmitate pIC50 (μM) (converted)) [µM]
0.0589 | ~166 | 74 | 3.39 | 214 | CC(C)Nc1ccc(C(=O)Nc2cc(C(=O)N3CCC(c4ccc(-c5cnn(C)c5)cc4)CC3)ccc2N)cn1 [Compound 285, N-(2-amino-5-(4-(4-(1-methyl-1H-pyrazol-4-yl)phenyl)piperidine-1-carbonyl)phenyl)-6-(isopropylamino)nicotinamide] |  | 
0.427 | 513 | 91 | > 10 | 851 | COCCNc1ccc(C(=O)N2CCC(c3ccc(-c4cnn(C)c4)cc3)CC2)cc1NC(=O)C1CC1 [Compound 286, N-(2-((2-methoxyethyl)amino)-5-(4-(4-(1-methyl-1H-pyrazol-4-yl)phenyl)piperidine-1-carbonyl)phenyl)cyclopropanecarboxamide] |  | 
0.676 | 100 | 98 | > 10 | 204 | CC(C)Nc1ccc(C(=O)Nc2cc(C(=O)N3CCC(c4ccc(-c5cnn(C)c5)cc4)CC3)ccc2N(C)C2CC2)cn1 [Compound 287, N-(2-(cyclopropyl(methyl)amino)-5-(4-(4-(1-methyl-1H-pyrazol-4-yl)phenyl)piperidine-1-carbonyl)phenyl)-6-(isopropylamino)nicotinamide] |  | 
5.13 | 871 | 88 | > 10 | 2510 | CN(c1ccc(C(=O)N2CCC(c3ccc(-c4cnn(C)c4)cc3)CC2)cc1NC(=O)C1CC1)C1CC1 [Compound 288, N-(2-(cyclopropyl(methyl)amino)-5-(4-(4-(1-methyl-1H-pyrazol-4-yl)phenyl)piperidine-1-carbonyl)phenyl)cyclopropanecarboxamide] |  | 
~0.0229 | 9.55 | 118 | > 15.1 | 31.6 | Cc1ccc(C(=O)N2CC(c3ccc(-c4cnn(C)c4)cc3)C2)cc1NC(=O)c1ccc(N2CCOCC2)nc1 [Compound #66, N-(2-methyl-5-(3-(4-(1-methyl-1H-pyrazol-4-yl)phenyl)azetidine-1-carbonyl)phenyl)-6-morpholinonicotinamide] |  | 
~0.0295 | ~10.2 | 120 | ~15.1 | 25.1 | Cc1ccc(C(=O)N2CC(c3ccc(-c4cnn(C)c4)cc3)C2)cc1NC(=O)c1ccc(N(C)C(C)C)nc1 [Compound #78, 6-(isopropyl(methyl)amino)-N-(2-methyl-5-(3-(4-(1-methyl-1H-pyrazol-4-yl)phenyl)azetidine-1-carbonyl)phenyl)nicotinamide] |  | 
0.0417 | 41.7 | 98 | ~10 | 93.3 | CNc1ccc(C(=O)N2CCC(c3ccc(-c4cnn(C)c4)cc3)CC2)cc1NC(=O)c1ccc(NC(C)C)nc1 [Compound #279, 6-(isopropylamino)-N-(5-(4-(4-(1-methyl-1H-pyrazol-4-yl)phenyl)piperidine-1-carbonyl)-2-(methylamino)phenyl)nicotinamide] |  | 
